PubChem BioAssay (NCI)
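Values below derive from 48-hour exposures of cells grown in 96-well plates, with endpoints linearly interpolated between the two concentrations bracketing the appropriate inhibition level. GI50 marks 50% less growth. The concentration for full growth arrest is given as TGI.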

Experiments:
Assay in all cases: NCI anticancer screen, dose series, 48 h; in the data active means GI50 below about 0.43 µM; inactive means the rest
MCF7 breast = tested on: MCF7 breast
COLO 205 colon = tested on: COLO 205 colon
HOP-62 NSCLC = tested on: HOP-62 NSCLC
HCC-2998 colon = tested on: HCC-2998 colon
UACC-257 melanoma = tested on: UACC-257 melanoma
SK-MEL-2 melanoma = tested on: SK-MEL-2 melanoma
SNB-19 CNS = tested on: SNB-19 CNS
HCT-15 colon = tested on: HCT-15 colon
MDA-MB-435 = tested on: MDA-MB-435
BT-549 breast = tested on: BT-549 breast
SW-620 colon = tested on: SW-620 colon
CCRF-CEM leukemia = tested on: CCRF-CEM leukemia
DU-145 prostate = tested on: DU-145 prostate
KM12 colon = tested on: KM12 colon
HT29 colon = tested on: HT29 colon
MOLT-4 leukemia = tested on: MOLT-4 leukemia
PC-3 prostate = tested on: PC-3 prostate
HL-60(TB) leukemia = tested on: HL-60(TB) leukemia

O=C(CSc1nnc(-c2ccc(Cl)cc2)n1-c1ccccc1)Nc1ccc(Br)cc1
> 50 µM: TGI (MCF7 breast) | TGI (COLO 205 colon) | TGI (HOP-62 NSCLC) | TGI (HCC-2998 colon) | TGI (UACC-257 melanoma) | TGI (SK-MEL-2 melanoma) | TGI (SNB-19 CNS) | TGI (HCT-15 colon) | TGI (MDA-MB-435) | TGI (BT-549 breast) | TGI (SW-620 colon) | TGI (CCRF-CEM leukemia) | TGI (DU-145 prostate) | TGI (KM12 colon) | TGI (HT29 colon) | TGI (MOLT-4 leukemia) | TGI (PC-3 prostate) | TGI (HL-60(TB) leukemia)
inactive: GI50 (MCF7 breast) > 50 µM | GI50 (COLO 205 colon) > 50 µM | GI50 (HOP-62 NSCLC) 1.87 µM | GI50 (HCC-2998 colon) > 50 µM | GI50 (UACC-257 melanoma) > 50 µM | GI50 (SK-MEL-2 melanoma) > 50 µM | GI50 (SNB-19 CNS) 1.89 µM | GI50 (HCT-15 colon) > 50 µM | GI50 (MDA-MB-435) > 50 µM | GI50 (BT-549 breast) > 50 µM | GI50 (SW-620 colon) > 50 µM | GI50 (CCRF-CEM leukemia) > 50 µM | GI50 (DU-145 prostate) > 50 µM | GI50 (KM12 colon) > 50 µM | GI50 (HT29 colon) > 50 µM | GI50 (MOLT-4 leukemia) > 50 µM | GI50 (PC-3 prostate) > 50 µM | GI50 (HL-60(TB) leukemia) > 50 µM
